Laboratory results from BindingDB's records for PubMed 8386236 (Whitby Research, 1993).

Assays:
Adenosine receptor A2a = Adenosine receptor A2a (Cavia porcellus, UniProt P46616)
Adenosine receptor A2b = target: T1, Adenosine receptor A2b (Bos taurus, UniProt Q1LZD0)
T1 sequence (Q1LZD0 whole entry): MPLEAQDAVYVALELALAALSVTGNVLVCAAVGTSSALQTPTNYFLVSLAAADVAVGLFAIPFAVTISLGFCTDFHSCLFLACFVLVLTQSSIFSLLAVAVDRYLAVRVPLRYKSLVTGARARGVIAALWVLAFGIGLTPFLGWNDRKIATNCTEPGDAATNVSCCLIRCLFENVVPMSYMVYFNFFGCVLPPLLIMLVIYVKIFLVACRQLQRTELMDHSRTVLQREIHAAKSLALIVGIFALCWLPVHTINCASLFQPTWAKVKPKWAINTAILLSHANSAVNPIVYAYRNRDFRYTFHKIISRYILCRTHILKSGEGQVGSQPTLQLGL

Adenosine receptor A1 [1] = target: T2, Adenosine receptor A1 (Cavia porcellus, UniProt P47745)
T2 sequence (P47745 whole entry): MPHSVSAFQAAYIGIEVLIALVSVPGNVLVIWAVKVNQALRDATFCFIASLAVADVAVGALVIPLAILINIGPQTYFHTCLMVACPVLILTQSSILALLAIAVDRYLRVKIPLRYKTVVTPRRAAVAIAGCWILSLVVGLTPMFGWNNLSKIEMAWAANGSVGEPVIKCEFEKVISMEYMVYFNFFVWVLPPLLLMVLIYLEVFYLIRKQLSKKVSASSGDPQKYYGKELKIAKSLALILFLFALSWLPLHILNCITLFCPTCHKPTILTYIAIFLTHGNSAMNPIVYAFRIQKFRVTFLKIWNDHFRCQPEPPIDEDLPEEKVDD

Adenosine receptor A1 [2] = target: T3, Adenosine receptor A1 (Bos taurus, UniProt P28190)
T3 sequence (P28190 whole entry): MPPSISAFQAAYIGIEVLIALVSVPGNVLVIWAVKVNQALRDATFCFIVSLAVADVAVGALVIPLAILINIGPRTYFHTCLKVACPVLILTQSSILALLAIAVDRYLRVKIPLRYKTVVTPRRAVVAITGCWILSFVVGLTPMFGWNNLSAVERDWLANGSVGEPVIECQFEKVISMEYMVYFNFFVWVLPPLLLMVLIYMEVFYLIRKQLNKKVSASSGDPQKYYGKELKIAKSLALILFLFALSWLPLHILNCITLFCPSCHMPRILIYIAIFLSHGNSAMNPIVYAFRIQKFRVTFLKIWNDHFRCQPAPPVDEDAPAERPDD

Sequence of Adenosine receptor A2a (P46616 whole entry): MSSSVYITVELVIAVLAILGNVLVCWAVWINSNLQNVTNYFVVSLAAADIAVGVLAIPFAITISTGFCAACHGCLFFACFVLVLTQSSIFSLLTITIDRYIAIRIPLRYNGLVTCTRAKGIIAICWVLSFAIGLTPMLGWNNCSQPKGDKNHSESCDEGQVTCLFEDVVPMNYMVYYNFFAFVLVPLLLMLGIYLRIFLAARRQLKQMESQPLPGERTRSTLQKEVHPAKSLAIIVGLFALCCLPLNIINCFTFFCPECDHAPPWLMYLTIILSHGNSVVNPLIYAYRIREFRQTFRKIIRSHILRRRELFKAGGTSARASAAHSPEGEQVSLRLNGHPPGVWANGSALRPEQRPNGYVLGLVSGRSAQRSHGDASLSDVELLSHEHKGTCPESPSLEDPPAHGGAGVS

| Structure (SMILES) | Ki (Adenosine receptor A2a) | Ki (Adenosine receptor A2b) | Ki (Adenosine receptor A1 [1]) | Ki (Adenosine receptor A1 [2]) |
| --- | --- | --- | --- | --- |
| Nc1nc(Cl)nc2c1ncn2[C@@H]1O[C@H](CO)[C@@H](O)[C@H]1O [2-CI Adenosine] | > 10 µM | 6.92 µM |  |  |
| CC(Cc1ccccc1)Nc1ncnc2c1ncn2C1OC(CO)C(O)C1O (centres undefined) [R-N6-(2-phenylisopropyl) adenosine] |  |  | 1.95 µM | 0.0182 µM |
